In general, KD refers to the constant that tells how readily two partners part at equilibrium. Low readings indicate higher affinity, high ones lower affinity.

Test [1] has as its system GRA (B. subtilis xpt-pbuX guanine riboswitch C74U aptamer domain) (RNA, riboswitch) GGACAUAUAAUCGCGUGGAUAUGGCACGCAAGUUUCUACCGGGCACCGUAAAUGUCCGAUUAUGUCC
The experiment in a line: X-ray crystallography. Conditions: cocrystal structure, 1.6 Å.

For test [2] the test system is unchanged. Nature of the test: 2-aminopurine displacement fluorescence competition. The conditions noted are these: 100 mM KCl, 10 mM MgCl2, 50 mM Tris-HCl pH 8.3.
Test [3] has the same test system. Nature of the test: 2-aminopurine fluorescence titration. The conditions noted are these: 100 mM KCl, 10 mM MgCl2; 50 mM Tris-HCl pH 8.3; RNA titrated into 200 nM 2-aminopurine.
The mark [4] stands for this setting: 2-aminopurine displaced (KL 140 nM), 243 nM RNA.

Consider `CNc1ncnc2[nH]cnc12`, for which the binding result in test [1] is listed as “yes”. In test [2] (setting [4]), `Cc1nc(N)nc(N)n1` gave a dissociation constant (KD) of 110 ± 30 µM. `Nc1cc(N)nc(N)n1` displayed a binding constant in test [2] (setting [4]) of 0.014 ± 0.001 mM. With `Nc1nc(N)nc(Cl)n1`, in test [2] (2-aminopurine displaced, highest concentration tested 120 μM), the binding entry is “no”. `Nc1nc2[nH]nc(N)n2n1` gave a dissociation constant KD in test [2] (setting [4]) of 370 ± 40 µM. `Nc1ncc2[nH]cnc2n1` displayed a KL in test [3] of 140 nM. `Nc1ncnc(N)n1`: the KD in test [2] (setting [4]) was determined as 80 ± 20 µM.

The values are drawn from paper PMC3119931 (2011).
